Patent US8846704B2, “Thiopyrimidine-based compounds and uses thereof” (YM Biosciences Austraila Pty Ltd, priority 2007, dated 2014)

Tests used:
Type in all cases: biochemical
[1] = target: T1, KDR(h) (Homo sapiens, UniProt P35968); test: Upstate KinaseProfiler enzyme assay, KDR; settings: 500 nM compound; read-out: Percent inhibition at 500 nM KDR(h)
T1 construct: purchased Upstate Biotechnology (Dundee, UK), KinaseProfiler service
Method: (§1) Further enzyme assays were conducted at Upstate Biotechnology (Dundee, UK) in the KinaseProfiler™ Assay system.
(§2) The general protocol is as follows. All kinases are pre-diluted to a 10× working concentration prior to addition into the assay. The composition of the dilution buffer for the kinases is 20 mM MOPS pH 7.0, 1 mM EDTA, 0.1% β-mercaptoethanol, 0.01% Brij-35, 5% glycerol, 1 mg/ml BSA. All substrates are dissolved and diluted to working stocks in de-ionised water.

[2] = target: T2, BTK(h) (Homo sapiens, UniProt Q06187); test: Upstate KinaseProfiler enzyme assay, BTK; settings: 500 nM compound; read-out: Percent inhibition at 500 nM BTK(h)
T2 construct: purchased Upstate Biotechnology (Dundee, UK), KinaseProfiler service
T2 sequence (Q06187 whole entry): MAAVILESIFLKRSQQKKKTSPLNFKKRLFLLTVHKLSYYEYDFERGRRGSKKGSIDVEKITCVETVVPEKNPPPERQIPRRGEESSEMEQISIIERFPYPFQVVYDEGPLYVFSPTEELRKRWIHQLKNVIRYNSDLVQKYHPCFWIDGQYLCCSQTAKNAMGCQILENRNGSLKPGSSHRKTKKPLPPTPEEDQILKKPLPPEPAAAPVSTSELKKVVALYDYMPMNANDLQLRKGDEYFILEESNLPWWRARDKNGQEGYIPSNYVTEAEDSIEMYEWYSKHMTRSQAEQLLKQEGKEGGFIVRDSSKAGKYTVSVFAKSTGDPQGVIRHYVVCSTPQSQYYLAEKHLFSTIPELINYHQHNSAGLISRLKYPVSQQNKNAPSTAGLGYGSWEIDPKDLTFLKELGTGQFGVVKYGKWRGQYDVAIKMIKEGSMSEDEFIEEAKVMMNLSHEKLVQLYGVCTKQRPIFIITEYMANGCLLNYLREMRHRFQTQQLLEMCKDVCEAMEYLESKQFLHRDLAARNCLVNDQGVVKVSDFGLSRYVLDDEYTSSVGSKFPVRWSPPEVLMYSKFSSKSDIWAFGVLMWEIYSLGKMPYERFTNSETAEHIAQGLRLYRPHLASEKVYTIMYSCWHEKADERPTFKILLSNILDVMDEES
Method: as §1, §2

[3] = target: T3, Blk(m) (Mus musculus, UniProt P16277); test: Upstate KinaseProfiler enzyme assay, Blk; settings: 500 nM compound; read-out: Percent inhibition at 500 nM Blk(m)
T3 construct: purchased Upstate Biotechnology (Dundee, UK), KinaseProfiler service
T3 sequence (P16277 whole entry): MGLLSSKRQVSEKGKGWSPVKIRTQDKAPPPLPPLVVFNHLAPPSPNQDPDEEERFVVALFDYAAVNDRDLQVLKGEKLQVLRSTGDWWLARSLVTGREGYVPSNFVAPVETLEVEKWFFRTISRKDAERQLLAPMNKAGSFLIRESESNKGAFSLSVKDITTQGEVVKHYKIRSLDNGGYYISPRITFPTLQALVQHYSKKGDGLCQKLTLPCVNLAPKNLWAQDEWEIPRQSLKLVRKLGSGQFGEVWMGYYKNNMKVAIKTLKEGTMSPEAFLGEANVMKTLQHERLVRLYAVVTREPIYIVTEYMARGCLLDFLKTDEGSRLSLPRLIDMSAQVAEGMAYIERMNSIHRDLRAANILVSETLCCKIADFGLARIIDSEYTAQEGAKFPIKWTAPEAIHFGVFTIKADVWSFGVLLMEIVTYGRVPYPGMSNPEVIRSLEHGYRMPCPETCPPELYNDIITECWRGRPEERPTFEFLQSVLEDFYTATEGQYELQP
Method: as §1, §2

[4] = target: T4, Bmx(h) (Homo sapiens, UniProt P51813); test: Upstate KinaseProfiler enzyme assay, Bmx; settings: 500 nM compound; read-out: Percent inhibition at 500 nM Bmx(h)
T4 construct: purchased Upstate Biotechnology (Dundee, UK), KinaseProfiler service
T4 sequence (P51813 1-675): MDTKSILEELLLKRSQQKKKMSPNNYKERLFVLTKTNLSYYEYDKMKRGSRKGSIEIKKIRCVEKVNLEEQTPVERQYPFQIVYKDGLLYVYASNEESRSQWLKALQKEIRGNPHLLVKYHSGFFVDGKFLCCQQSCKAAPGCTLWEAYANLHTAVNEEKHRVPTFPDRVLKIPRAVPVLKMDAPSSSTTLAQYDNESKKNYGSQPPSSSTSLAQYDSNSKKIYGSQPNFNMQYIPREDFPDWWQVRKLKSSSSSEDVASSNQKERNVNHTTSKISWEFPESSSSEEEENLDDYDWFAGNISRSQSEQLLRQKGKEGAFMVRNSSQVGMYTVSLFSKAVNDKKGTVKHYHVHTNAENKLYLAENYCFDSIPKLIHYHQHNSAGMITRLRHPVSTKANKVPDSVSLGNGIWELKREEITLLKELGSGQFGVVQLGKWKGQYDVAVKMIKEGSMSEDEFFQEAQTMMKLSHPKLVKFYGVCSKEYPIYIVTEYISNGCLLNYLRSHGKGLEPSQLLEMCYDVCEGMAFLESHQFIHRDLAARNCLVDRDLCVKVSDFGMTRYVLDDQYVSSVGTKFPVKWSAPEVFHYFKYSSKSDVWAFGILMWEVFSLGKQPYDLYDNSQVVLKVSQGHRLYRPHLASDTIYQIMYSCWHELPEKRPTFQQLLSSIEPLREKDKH
Method: as §1, §2

[5] = target: T5, Flt 4(h) (Homo sapiens, UniProt P35916); test: Upstate KinaseProfiler enzyme assay, Flt 4; settings: 500 nM compound; read-out: Percent inhibition at 500 nM Flt 4(h)
T5 construct: purchased Upstate Biotechnology (Dundee, UK), KinaseProfiler service
T5 sequence (P35916 25-1363): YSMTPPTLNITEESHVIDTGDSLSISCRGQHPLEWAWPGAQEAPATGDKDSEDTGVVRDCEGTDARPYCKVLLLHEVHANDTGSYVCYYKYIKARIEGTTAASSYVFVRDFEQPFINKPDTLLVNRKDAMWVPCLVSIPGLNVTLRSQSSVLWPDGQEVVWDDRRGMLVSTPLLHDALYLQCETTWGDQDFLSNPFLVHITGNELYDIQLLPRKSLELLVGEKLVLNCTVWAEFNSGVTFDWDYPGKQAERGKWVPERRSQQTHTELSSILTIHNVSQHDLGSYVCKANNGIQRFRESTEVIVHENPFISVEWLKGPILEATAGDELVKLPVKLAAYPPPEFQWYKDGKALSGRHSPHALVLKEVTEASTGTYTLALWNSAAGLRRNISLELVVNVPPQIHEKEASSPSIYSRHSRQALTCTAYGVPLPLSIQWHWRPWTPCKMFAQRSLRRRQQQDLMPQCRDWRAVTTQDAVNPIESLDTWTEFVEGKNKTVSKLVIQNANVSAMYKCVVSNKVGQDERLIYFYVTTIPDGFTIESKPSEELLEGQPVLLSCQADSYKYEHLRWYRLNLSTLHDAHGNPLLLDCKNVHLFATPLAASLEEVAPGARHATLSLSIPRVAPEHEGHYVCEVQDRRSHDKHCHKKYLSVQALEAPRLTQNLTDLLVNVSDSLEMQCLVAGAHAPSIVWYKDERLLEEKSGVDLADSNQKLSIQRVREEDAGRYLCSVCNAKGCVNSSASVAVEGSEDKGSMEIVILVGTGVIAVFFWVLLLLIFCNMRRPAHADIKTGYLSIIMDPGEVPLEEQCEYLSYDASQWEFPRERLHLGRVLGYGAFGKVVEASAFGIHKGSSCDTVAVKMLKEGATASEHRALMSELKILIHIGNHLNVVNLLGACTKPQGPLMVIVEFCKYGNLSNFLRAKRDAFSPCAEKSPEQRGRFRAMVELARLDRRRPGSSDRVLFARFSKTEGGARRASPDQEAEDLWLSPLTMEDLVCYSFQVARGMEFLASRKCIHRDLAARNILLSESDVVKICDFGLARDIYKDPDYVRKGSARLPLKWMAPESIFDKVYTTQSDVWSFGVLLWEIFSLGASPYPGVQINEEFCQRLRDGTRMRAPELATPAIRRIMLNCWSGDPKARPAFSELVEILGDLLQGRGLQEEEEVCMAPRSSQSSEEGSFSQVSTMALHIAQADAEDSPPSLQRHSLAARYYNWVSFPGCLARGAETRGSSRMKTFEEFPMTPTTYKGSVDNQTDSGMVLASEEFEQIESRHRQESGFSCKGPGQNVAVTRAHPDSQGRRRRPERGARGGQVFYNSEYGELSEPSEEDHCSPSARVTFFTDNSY
Method: as §1, §2

[6] = target: T6, Flt 1(h) (Homo sapiens, UniProt P17948); test: Upstate KinaseProfiler enzyme assay, Flt 1; settings: 500 nM compound; read-out: Percent inhibition at 500 nM Flt 1(h)
T6 construct: purchased Upstate Biotechnology (Dundee, UK), KinaseProfiler service
T6 sequence (P17948 27-1338): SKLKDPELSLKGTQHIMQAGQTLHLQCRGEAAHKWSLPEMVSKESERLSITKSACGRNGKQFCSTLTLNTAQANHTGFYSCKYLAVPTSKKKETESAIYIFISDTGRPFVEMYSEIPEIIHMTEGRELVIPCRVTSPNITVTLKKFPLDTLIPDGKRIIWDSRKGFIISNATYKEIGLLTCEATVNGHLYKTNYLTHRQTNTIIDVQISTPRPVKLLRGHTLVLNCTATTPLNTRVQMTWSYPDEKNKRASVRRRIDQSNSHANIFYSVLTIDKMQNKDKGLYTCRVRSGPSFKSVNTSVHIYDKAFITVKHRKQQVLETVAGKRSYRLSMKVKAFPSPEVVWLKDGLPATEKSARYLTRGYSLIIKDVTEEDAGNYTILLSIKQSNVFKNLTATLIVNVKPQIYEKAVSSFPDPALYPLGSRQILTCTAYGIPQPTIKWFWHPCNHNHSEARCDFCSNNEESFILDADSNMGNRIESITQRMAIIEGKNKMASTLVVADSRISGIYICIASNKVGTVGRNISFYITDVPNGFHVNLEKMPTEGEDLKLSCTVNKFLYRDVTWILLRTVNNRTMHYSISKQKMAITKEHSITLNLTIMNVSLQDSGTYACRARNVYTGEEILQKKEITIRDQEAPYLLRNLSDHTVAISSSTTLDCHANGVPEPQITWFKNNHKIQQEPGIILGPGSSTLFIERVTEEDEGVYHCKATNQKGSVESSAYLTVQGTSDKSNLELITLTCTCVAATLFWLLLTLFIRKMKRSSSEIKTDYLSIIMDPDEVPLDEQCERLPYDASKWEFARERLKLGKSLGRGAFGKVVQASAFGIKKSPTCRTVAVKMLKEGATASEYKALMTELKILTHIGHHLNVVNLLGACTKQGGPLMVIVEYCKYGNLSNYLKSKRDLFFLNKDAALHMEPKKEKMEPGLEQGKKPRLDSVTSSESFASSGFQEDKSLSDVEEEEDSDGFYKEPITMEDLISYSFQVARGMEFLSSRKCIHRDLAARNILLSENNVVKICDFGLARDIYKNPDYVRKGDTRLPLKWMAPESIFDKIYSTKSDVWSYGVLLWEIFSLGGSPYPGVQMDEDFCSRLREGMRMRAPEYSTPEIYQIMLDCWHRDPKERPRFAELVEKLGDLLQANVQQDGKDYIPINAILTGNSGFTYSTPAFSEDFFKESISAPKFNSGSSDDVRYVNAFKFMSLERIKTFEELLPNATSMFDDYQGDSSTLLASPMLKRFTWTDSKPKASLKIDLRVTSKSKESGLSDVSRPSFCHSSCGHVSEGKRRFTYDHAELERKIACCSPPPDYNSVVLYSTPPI
Method: as §1, §2

Row | SMILES | inhibition at 0.5 µM [1] [%] | inhibition at 0.5 µM [2] [%] | inhibition at 0.5 µM [3] [%] | inhibition at 0.5 µM [4] [%] | inhibition at 0.5 µM [5] [%] | inhibition at 0.5 µM [6] [%]
1 | C=CC(=O)Nc1cccc(Sc2ccnc(Nc3cccc(N4CCOCC4)c3)n2)c1 [Compound 110, N-(3-(2-(3-morpholinophenylao)pyrimidin-4-ylthio)phenyl)acrylamide] | 100 | 100 | 100 | 100 | – | –
2 | O=C(/C=C/Cl)Nc1cccc(Sc2ccnc(Nc3ccc(N4CCOCC4)cc3)n2)c1 [Compound 340, (E)-3-chloro-N-(3-(2-(4-morpholinophenylao)pyrimidin-4-ylthio)phenyl)acrylamide] | 94 | 97 | 99 | 92 | 95 | 100
3 | C=CC(=O)Nc1ccc(Sc2nc(Nc3ccc(NS(C)(=O)=O)cc3)ncc2C)cc1 [Compound 285, N-(4-(5-methyl-2-(4-(methylsulfonamido)phenylao)pyrimidin-4-ylthio)phenyl)acrylamide] | 94 | 91 | 97 | 98 | 98 | 95
4 | C=CC(=O)Nc1ccc(Sc2nc(Nc3ccc(N4CCOCC4)c(OC)c3)ncc2C)cc1 [Compound 248, N-(4-(2-(3-methoxy-4-morpholinophenylao)-5-methylpyrimidin-4-ylthio)phenyl)acrylamide] | 95 | 80 | 92 | 91 | 100 | 95
5 | C=CC(=O)Nc1ccc(Sc2nc(Nc3ccc(N4CCC(CO)CC4)cc3)ncc2C)cc1 [Compound 286, N-(4-(2-(4-(4-(hydroxymethyl)piperidin-1-yl)phenylao)-5-methylpyrimidin-4-ylthio)phenyl)acrylamide] | 94 | 74 | 88 | 95 | 100 | 98
6 | N#Cc1nnn(Cc2ccc(Sc3ccnc(Nc4ccc(N5CCOCC5)cc4)n3)cc2)n1 [Compound 156, 2-(4-(2-(4-morpholinophenylao)pyrimidin-4-ylthio)benzyl)-2H-tetrazole-5-carbonitrile] | 97 | 81 | 41 | 83 | 94 | 80
7 | C=CC(=O)Nc1ccc(Sc2nc(Nc3cccc(N4CCN(C)CC4)c3)ncc2C)cc1 [Compound 243, N-(4-(5-methyl-2-(3-(4-methylpiperazin-1-yl)phenylao)pyrimidin-4-ylthio)phenyl)acrylamide] | 97 | 97 | 99 | 96 | 100 | 100
8 | C=CC(=O)Nc1ccc(Sc2ccnc(Nc3cccc(N4CCOCC4)c3)n2)cc1 [Compound 77, N-(4-(2-(3-morpholinophenylao)pyrimidin-4-ylthio)phenyl)acrylamide] | 100 | 100 | 100 | 100 | – | –
9 | C=CC(=O)NCc1cccc(Sc2ccnc(Nc3ccc(N4CCOCC4)cc3)n2)c1 [Compound 112, N-(3-(2-(4-morpholinophenylamino)pyrimidin-4-ylthio)benzyl)acrylamide] | 100 | 100 | 100 | 100 | – | –
10 | C=CC(=O)Nc1ccc(Sc2ccnc(Nc3ccc(N4CCOCC4)cc3)n2)cc1OC [Compound 123, N-(2-methoxy-4-(2-(4-morpholinophenylao)pyrimidin-4-ylthio)phenyl)acrylamide] | 100 | 100 | 100 | 100 | – | –
11 | C=CC(=O)Nc1cccc(Sc2ccnc(Nc3ccc(N4CCOCC4)cc3)n2)c1 [Compound 23, N-(3-(2-(4-morpholinophenylamino)pyrimidin-4-ylthio)phenyl)acrylamide] | – | 84 | 97 | 100 | – | –
12 | C=CC(=O)Nc1ccc(Sc2ccnc(Nc3ccc(N4CCN(C)CC4)cc3)n2)cc1 [Compound 238, N-(4-(2-(4-(4-methylpiperazin-1-yl)phenylao)pyrimidin-4-ylthio)phenyl)acrylamide] | 95 | – | 99 | 90 | 99 | 97
13 | C=CC(=O)Nc1ccc(Sc2nc(Nc3cccc(OC)c3)ncc2C)cc1 [Compound 235, N-(4-(2-(3-methoxyphenylao)-5-methylpyrimidin-4-ylthio)phenyl)acrylamide] | 96 | – | 86 | 79 | 99 | 86
14 | C=CC(=O)Nc1ccc(Sc2nc(Nc3ccc(N4CCOCC4)cc3)ncc2C)c(C)c1 [Compound 163, N-(3-methyl-4-(5-methyl-2-(4-morpholinophenylao)pyrimidin-4-ylthio)phenyl)acrylamide] | 97 | – | 95 | 85 | 99 | 83
15 | Cc1cc(N)ccc1Sc1nc(Nc2ccc(N3CCOCC3)cc2)ncc1C [Compound 162, 4-(4-ao-2-methylphenylthio)-5-methyl-N-(4-morpholinophenyl)pyrimidin-2-ae] | 95 | – | 50 | 55 | 98 | 82
16 | C=CC(=O)NCc1ccc(Sc2ccnc(Nc3ccc(N4CCOCC4)cc3)n2)cc1 [Compound 111, N-(4-(2-(4-morpholinophenylamino)pyrimidin-4-ylthio)benzyl)acrylamide] | 100 | 100 | 100 | 100 | – | –
17 | Cc1cnc(Nc2ccc(N3CCOCC3)cc2)nc1Sc1c(C)cc(N)cc1C [Compound 165, 4-(4-ao-2,6-dimethylphenylthio)-5-methyl-N-(4-morpholinophenyl)pyrimidin-2-ae] | 86 | – | 0 | 40 | 99 | 43
18 | C=CC(=O)Nc1cccc(Nc2nccc(Sc3ccc(OC)cc3)n2)c1 [Compound 42, N-(3-(4-(4-methoxyphenylthio)pyrimidin-2-ylao)phenyl)acrylamide] | 100 | 100 | 59 | 100 | – | –
19 | C=CC(=O)Nc1ccc(Sc2nc(Nc3cccc(N4CCOCC4)c3)ncc2C)cc1 [Compound 237, N-(4-(5-methyl-2-(3-morpholinophenylao)pyrimidin-4-ylthio)phenyl)acrylamide] | 97 | – | 96 | 92 | 99 | 98
20 | N#Cc1ncn(Cc2ccc(Sc3ccnc(Nc4ccc(N5CCOCC5)cc4)n3)cc2)c1C#N [Compound 201, 1-(4-(2-(4-morpholinophenylao)pyrimidin-4-ylthio)benzyl)-1H-imidazole-4,5-dicarbonitrile] | 100 | 100 | 100 | 100 | – | –
21 | CC#CC(=O)Nc1ccc(Sc2ccnc(Nc3cccc(N4CCOCC4)c3)n2)cc1 [Compound 233, N-(4-(2-(3-morpholinophenylao)pyrimidin-4-ylthio)phenyl)but-2-ynamide] | 98 | – | 85 | 89 | 99 | 99
22 | C=CC(=O)Nc1ccc(Sc2ccnc(Nc3ccc(N4CCOCC4)cc3)n2)cc1 [Compound 25, N-(4-(2-(4-morpholinophenylamino)pyrimidin-4-ylthio)phenyl)acrylamide] | – | 83 | 71 | 97 | – | –
